Test system: L1210 cells (murine lymphocytic leukemia)
Assay: Cytotoxic activity in vitro on L1210 cells (50% inhibition of cellular growth) after 48 h continuous treatment
Assay type: cell-based
Settings: Mus musculus, total cells counted with Coulter Counter, DMSO final concentration 0.5%, read-out: IC50 (concentration inhibiting 50% of cell growth)
Description: The IC50 was determined for each compound of formula (Ia), (Ib) and (Ic) from dose-response curves counting the total number of cells with a Coulter Counter (Kontron mod. ZM).
The tested compounds were dissolved in dimethylsulfoxide (DMSO) at a final concentration of 0.5%.

SMILES	IC50 [ng/mL]
CC[C@@]1(O)C(=O)OCc2c1cc1n(c2=O)Cc2cc3c(N)c(OS(=O)(=O)c4cccc5ccccc45)ccc3nc2-1 [Formula (Ia), 9-amino-10-(1-naphthylsulfonyloxy)-20(S)-camptothecin]	2.2 ± 0.3
CC[C@@]1(O)C(=O)OCc2c1cc1n(c2=O)Cc2cc3c(N)c(OS(=O)(=O)c4ccccc4)ccc3nc2-1 [Formula (Ib), 9-amino-10-phenylsulfonyloxy-20(S)-camptothecin]	6.8 ± 0.4
CCc1c2c(nc3ccc(OS(=O)(=O)c4ccc(C)cc4)c(N)c13)-c1cc3c(c(=O)n1C2)COC(=O)[C@]3(O)CC [Formula (Ic), 7-ethyl-9-amino-10-(p-toluenesulfonyloxy)-20(S)-camptothecin]	4.6 ± 0.1

Reference: US5998426A, “9,10 disubstituted camptothecin derivatives with antitumor activity” (Pharmacia & Upjohn S.p.A., priority 1996, dated 1999)
